Patent US7129250B2, “Neuroprotective and anti-proliferative compounds” (Aegera Therapeutics Inc., priority 2000, dated 2006)

Columns and labels:
SHSY-5Y cells = assay: Etoposide Killing of SHSY-5Y; format: cell-based; conditions: etoposide 32 uM
Experimental: SHSY-5Y cells were grown in growth media. Cells are placed at 50,000 cells per 96 well. Four days latter the cells were treated with drug for 48 hours prior to etoposide (32 uM) treatment. On day 6 media was changed to that containing etoposide and drug for 4 hours, at which point the media was changed to media containing drug only. Cells are allowed to survive overnight and then assessed for viability with metabolic activity measured (WST-1-Beohringer Mannheime), as shown in TABLE 13.

CGNs [1] = assay: Cisplatin Killing of CGNs; format: cell-based, CD1 mice; conditions: for IC50: assayed 48 hours after final drug treatment
Experimental: Cisplatin has been used extensively in the treatment of various cancers. One dosblimiting side effect of this chemotherapeutic agent is related to hearing loss as a result of its toxicity to auditory neurons and loss of feeling in the extremities. Cisplatin induces apoptosis to both cultured CGN and cortical neurons.
CGNs were harvested from day 8/9 post-natal CD1 mice, plated on Poly-D-Lycine coated plates and incubated for 6 days at 37° C. under 5% CO2. The cells were treated with media containing drug and cisplatin […].

CGNs [2] = assay: High/Low Potassium (HK/LK) assay in CGNs; format: cell-based; conditions: HK/LK switch, drug 24 h pre-treatment, assayed 16 h after media change, concentration at which cell death was inhibited by 50%
Experimental: Cultured CGNs which are maintained in a medium containing 26 mM potassium (high K^+ or HK) undergo cell death when the medium is changed to one containing 5 mM potassium (low K^+ or LK). HK maintains the cells in a highly polarized state, duplicating that of fully innervated neurons. The switch to LK (5 mM is more representative of physiological conditions) results in depolarization of the cells, mimicking the loss of neuronal conductivity. […] As these killer genes are turned on by various types of neuronal insult as observed in AD, PD, and stroke, HK/LK is a general in vitro model for neuronal degradation, blanketing a wide range of neurodegenerative diseases. Compounds that protect against HK/LK in CGNs would therefore be efficacious in treatment and/or prevention of various neurodegenerative disease states.
CGNs were harvested from day 8/9 post-natal CD1 mice, plated on Poly-D-Lycine coated plates and incubated for 6 days at 37° C., with […] potassium, under 5% CO2. Pretreated cells were treated with drug 24 hours prior to changing the media to one containing […] potassium and drug. Cells were assayed 16 hours after the final media change using cell TITER96 (Promega).

HIAP1 mRNA in LAN5 cells = assay: LAN5 HAIP1 Down Regulators (RNA levels); format: cell-based; conditions: HIAP1 RNA level vs control = 1.0; 24 hours drug
Experimental: LAN5 cells were grown in growth media. Cells were plated at cells 50,000 per well in 96 cells per 96 wells. Five days latter drug was added and the cells were liced 24 hours latter using RLT buffer.

Jurkat cells = assay: Killing of cultured Jurkats with and without anti-Fas; format: cell-based, Human; conditions: for Survival % With Anti-Fas: with anti-Fas (5 ng/mL)
Experimental: Jurkats are a T-cell derived lymphoma cell line which expresses both FAS receptor and Fas-L. These cells, however, are only mildly sensitive to Fas-L/anti-Fas induced apoptosis. Select compounds were tested for their ability to kill Jurkats. Additionally, we investigated the ability of select compounds to sensitize the Jurkats to anti-Fas mediated apoptosis.
Human lymphoma jurkat cells were cultured in suspension in 24 well plates. Jurkat cell were treated with test compounds either alone or in the presence of suboptimal doses of anti-Fas antibody. After 18 hours of treatment cell death was assessed by Facs. Cells were incubated with propidium iodide and the percentage of cells that incorporated the stain was counted by Facs.

CGNs [3] = assay: Ceramide Killing of CGNs; format: cell-based, CD1 mice; conditions: ceramide 100 uM
Source text: Ceramide is a native […] found in most mammalian and human cells. The upregulation of endogenous ceramide has been linked to caspase 1 (ICE) induced apoptosis (Suzuki, A. et al. Exp. Cel. Res., 1997, 233, 41). In a similar fashion, the addition of ceramide to cultured CGNs results in caspase induced apoptosis, and is therefore considered an effective in vitro model for the various neurodegenerative diseases described above, which are characterized by caspase induced apoptosis, as observed in stroke models. Addition of selected compounds of the formula I through III, 24 hours prior to the addition of ceramide, to cultured CGNs provided protection against apoptosis, with 10 to 20% of the cells being saved at 1–10 μM drug concentrations (see Example 114).
CGNs were harvested from day 8/9 post-natal CD1 mice, plated on Poly-D-Lycine coated plates and incubated for 6 days at 37° C. under 5% CO2. Cells were pretreated with drug 24 hours prior to ceramide (100 uM) and drug addition.

Compound: O=C1NC(=O)C(n2ccc3ccccc32)=C1c1cn(CCCO)c2ccccc12 [Compound 121]
- % SHSY-5Y cell survival (SHSY-5Y cells; drug 1 μM): 5.5%

Compound: COc1ccc2[nH]cc(CCNC(C)=O)c2c1 [melatonin, Melatonin, reference compound]
- protection of CGNs (CGNs [1]; high doses): protect CGNs

Compound: Cc1ccc(S(=O)(=O)n2cc(C3=CC(=O)NC3=O)c3cc(Br)ccc32)cc1 [Compound 60, 3-(N-(p-toluenesulfoiiyl)-5-bromoindol-3-yl)-1H-pyrrole-2,5-dione]
- IC50 (CGNs [2]): 10 µM
- Fold Induction (HIAP1 mRNA in LAN5 cells): 0.13

Compound: Cn1cc(C2=C(n3cc(CCCSC(=N)N)c4ccccc43)C(=O)NC2=O)c2ccccc21 [Compound 167]
- Survival % With Anti-Fas (Jurkat cells; compound dose 0.3 (μM)): 43.3%
- Survival % Without Anti-Fas (Jurkat cells; compound dose 0.3 (μM)): 97.7%
- Survival % With Anti-Fas (Jurkat cells; compound dose 1 (μM)): 16.7%
- Survival % Without Anti-Fas (Jurkat cells; compound dose 1 (μM)): 88.3%
- Survival % With Anti-Fas (Jurkat cells; compound dose 3 (μM)): 4.9%
- Survival % Without Anti-Fas (Jurkat cells; compound dose 3 (μM)): 50.3%
- Survival % With Anti-Fas (Jurkat cells; compound dose 10 (μM)): 0%
- Survival % Without Anti-Fas (Jurkat cells; compound dose 10 (μM)): 0%
- Survival % With Anti-Fas (Jurkat cells; compound dose 30 (μM)): 0%
- Survival % Without Anti-Fas (Jurkat cells; compound dose 30 (μM)): 0%

Compound: Cc1cn(C2=C(c3cn(CCCSC(=N)N)c4ccc(OCc5ccccc5)cc34)C(=O)NC2=O)c2ccccc12 [Compound 149]
- Survival % With Anti-Fas (Jurkat cells; compound dose 3 (μM)): 2.00%
- Survival % Without Anti-Fas (Jurkat cells; compound dose 3 (μM)): >90%
- Survival % Without Anti-Fas (Jurkat cells; compound dose 10 (μM)): 0%

Compound: O=C1C=C(c2cn(S(=O)(=O)c3ccccc3[N+](=O)[O-])c3ccccc23)C(=O)N1 [Compound 95, 3-(N-(2-nitrobenzenesulfonyl)indol-3-yl)-1H-pyrrole-2,5-dione]
- IC50 (CGNs [2]; Mus musculus): 10 µM

Compound: Cc1cn(C2=C(c3cn(CCCSC(=N)N)c4ccccc34)C(=O)NC2=O)c2ccccc12 [Compound 146]
- Survival % With Anti-Fas (Jurkat cells; compound dose 3 (μM)): 19.7%
- Survival % Without Anti-Fas (Jurkat cells; compound dose 3 (μM)): >90%
- Survival % Without Anti-Fas (Jurkat cells; compound dose 10 (μM)): 0%

Compound: Cn1cc(C2=C(n3cc(CCCSC(=N)N)c4ccccc43)C(=O)NC2=O)c2cc(OCc3ccccc3)ccc21 [Compound 168]
- Survival % With Anti-Fas (Jurkat cells; compound dose 0.3 (μM)): 49.0%
- Survival % Without Anti-Fas (Jurkat cells; compound dose 0.3 (μM)): 90.7%
- Survival % With Anti-Fas (Jurkat cells; compound dose 1 (μM)): 48.6%
- Survival % Without Anti-Fas (Jurkat cells; compound dose 1 (μM)): 89.3%
- Survival % With Anti-Fas (Jurkat cells; compound dose 3 (μM)): 1%
- Survival % Without Anti-Fas (Jurkat cells; compound dose 3 (μM)): 46.1%
- Survival % With Anti-Fas (Jurkat cells; compound dose 10 (μM)): 0%
- Survival % Without Anti-Fas (Jurkat cells; compound dose 10 (μM)): 1.2%
- Survival % With Anti-Fas (Jurkat cells; compound dose 30 (μM)): 0%
- Survival % Without Anti-Fas (Jurkat cells; compound dose 30 (μM)): 0%

Compound: O=C1C=C(c2cn(Cc3ccc(F)cc3)c3ccc(OCc4ccccc4)cc23)C(=O)N1 [Compound 77, 3-(N-(4-fluorobenzyl)-5-benzyloxyindol-3-yl)-1H-pyrrole-2,5-dione]
- IC50 (CGNs [2]; Mus musculus): 10 µM

Compound: O=C1C=C(c2c[nH]c3ccc(Cl)cc23)C(=O)N1 [Compound 99, 3-(1H-5-chloroindol-3-yl)-1H-pyrrole-2,5-dione]
- % SHSY-5Y cell survival (SHSY-5Y cells; drug 10 μM): 4.7%

Compound: O=C1C=C(c2cn(Cc3ccccc3)c3ccc(OCc4ccccc4)cc23)C(=O)N1 [Compound 73, 3-(N-benzyl-5-benzyloxyindol-3-yl)-1H-pyrrole-2,5-dione]
- % SHSY-5Y cell survival (SHSY-5Y cells; drug 10 μM): toxic

Compound: COc1ccc2c(ccn2C2=C(c3c[nH]c4ccccc34)C(=O)NC2=O)c1 [Compound 3, 3-(5-Methoxyindol-1-yl)-4-(1H-indol-3-yl)-1H-pyrrole-2,5-dione]
- IC50 (CGNs [1]; Mus musculus): 10 µM

Compound: N=C(N)SCCCn1c2ccccc2c2c3c(n4c5ccccc5cc4c21)C(=O)NC3=O [Compound 145]
- Survival % With Anti-Fas (Jurkat cells; compound dose 3 (μM)): 34.9%
- Survival % Without Anti-Fas (Jurkat cells; compound dose 3 (μM)): 92.44%
- Survival % Without Anti-Fas (Jurkat cells; compound dose 10 (μM)): 11%

Compound: Cc1cc2ccccc2n1C1=C(c2cn(CCCSC(=N)N)c3ccc(OCc4ccccc4)cc23)C(=O)NC1=O [Compound 150]
- Survival % With Anti-Fas (Jurkat cells; compound dose 3 (μM)): 4.49%
- Survival % Without Anti-Fas (Jurkat cells; compound dose 3 (μM)): >90%
- Survival % Without Anti-Fas (Jurkat cells; compound dose 10 (μM)): 0%

Compound: O=C1C=C(c2cn(C(=O)c3ccccc3)c3ccc(Br)cc23)C(=O)N1 [Compound 59, 3-(N-benzoyl-5-bromoindol-3-yl)-1H-pyrrole-2,5-dione]
- Fold Induction (HIAP1 mRNA in LAN5 cells): 0.40

Compound: COc1ccc2c(c1)CC1c3[nH]c4ccccc4c3C3=C(C(=O)NC3=O)N21 (centres unmarked) [Compound 34]
- IC50 (CGNs [2]): 10 µM
- IC50 (CGNs [1]): 10 µM

Compound: O=C1C=C(c2cn(S(=O)(=O)c3ccc([N+](=O)[O-])cc3)c3ccccc23)C(=O)N1 [Compound 96, 3-(N-(4-nitrobenzenesulfonyl)indol-3-yl)-1H-pyrrole-2,5-dione]
- IC50 (CGNs [2]; Mus musculus): 10 µM

Compound: N=C(N)SCCCn1cc(C2=C(n3ccc4ccccc43)C(=O)NC2=O)c2cc(OCc3ccccc3)ccc21 [Compound 148]
- Survival % Without Anti-Fas (Jurkat cells; compound dose 3 (μM)): >90%
- Survival % With Anti-Fas (Jurkat cells; compound dose 10 (μM)): 19.7%
- Survival % Without Anti-Fas (Jurkat cells; compound dose 10 (μM)): 0%

Compound: CN(C)c1cccc2c(S(=O)(=O)n3cc(C4=CC(=O)NC4=O)c4cc(Br)ccc43)cccc12 [Compound 63, 3-(N-dansyl-5-bromoindol-3-yl)-1H-pyrrole-2,5-dione]
- Fold Induction (HIAP1 mRNA in LAN5 cells): 0.22

Compound: O=C1C=C(c2cn(S(=O)(=O)c3cccc4ccccc34)c3ccc(Br)cc23)C(=O)N1 [Compound 61, 3-(N-(1-naphthylenesulfonyl)-5-bromoindol-3-yl)-1H-pyrrole-2,5-dione]
- % CGN Survival (CGNs [3]; drug 100 nM): 0%
- % CGN Survival (CGNs [3]; drug 1 μM): 5.1%
- Fold Induction (HIAP1 mRNA in LAN5 cells): 0.16

Compound: N=C(N)SCCCn1cc(C2=C(N3CCc4ccccc43)C(=O)NC2=O)c2ccccc21 [Compound 159]
- Survival % With Anti-Fas (Jurkat cells; compound dose 3 (μM)): 9.48%
- Survival % Without Anti-Fas (Jurkat cells; compound dose 3 (μM)): >90%
- Survival % Without Anti-Fas (Jurkat cells; compound dose 10 (μM)): 17.38%

Compound: N=C(N)SCCCn1cc(C2=C(n3ccc4cc(OCc5ccccc5)ccc43)C(=O)NC2=O)c2ccccc21 [Compound 147]
- Survival % With Anti-Fas (Jurkat cells; compound dose 3 (μM)): 19.7%
- Survival % Without Anti-Fas (Jurkat cells; compound dose 3 (μM)): >90%
- Survival % Without Anti-Fas (Jurkat cells; compound dose 10 (μM)): 0%

Compound: COc1ccc2c(c1)cc1c3[nH]c4ccccc4c3c3c(n21)C(=O)NC3=O [Compound 48]
- IC50 (CGNs [2]): 3 µM
- IC50 (CGNs [1]): 10 µM

Compound: O=C1C=C(c2c[nH]c3ccc(Br)cc23)C(=O)N1 [Compound 56, 3-(1H-5-bromoindol-3-yl)-1H-pyrrole-2,5-dione]
- Fold Induction (HIAP1 mRNA in LAN5 cells): 0.31

Compound: O=C1C=C(c2cn(S(=O)(=O)c3ccc4ccccc4c3)c3ccc(Br)cc23)C(=O)N1 [Compound 62, 3-(N-(2-naphthylenesulfonyl)-5-bromoindol-3-yl)-1H-pyrrole-2,5-dione]
- Fold Induction (HIAP1 mRNA in LAN5 cells): 0.18
